Tested on: Phytophthora infestans
Test: microbe, parasite or virus in culture
Assay type: cell-based
Conditions: in Secale cereale, 168 h, read-out: control compared to the untreated check

Structure (SMILES)	inhibition of growth at 30 ppm [%]
COc1cncnc1OCC(=O)N1CCC(c2nc(C3=NOC(c4cc(Cl)ccc4Cl)C3)cs2)CC1 (stereo not shown) [Compound 77, 1-(4-(4-(5-(2,5-dichlorophenyl)-4,5-dihydroisoxazol-3-yl)thiazol-2-yl)piperidin-1-yl)-2-((5-methoxypyrimidin-4-yl)oxy)ethan-1-one]	≥ 70
O=C(COc1nccc(C(F)(F)F)n1)N1CCC(c2nc(C3=NOC(c4c(F)cccc4F)C3)cs2)CC1 (stereo not shown) [Compound 50, 1-(4-(4-(5-(2,6-difluorophenyl)-4,5-dihydroisoxazol-3-yl)thiazol-2-yl)piperidin-1-yl)-2-((4-(trifluoromethyl)pyrimidin-2-yl)oxy)ethan-1-one]	≥ 70
COc1nc(OC)nc(OCC(=O)N2CCC(c3nc(C4=NOC(c5c(Cl)cccc5OS(C)(=O)=O)C4)cs3)CC2)n1 (stereo not shown) [Compound 107, 3-chloro-2-(3-(2-(1-(2-((4,6-dimethoxy-1,3,5-triazin-2-yl)oxy)acetyl)piperidin-4-yl)thiazol-4-yl)-4,5-dihydroisoxazol-5-yl)phenyl methanesulfonate]	≥ 70
COc1cncnc1OCC(=O)N1CCC(c2nc(C3=NOC(c4c(Cl)ccc(F)c4F)C3)cs2)CC1 (stereo not shown) [Compound 81, 1-(4-(4-(5-(6-chloro-2,3-difluorophenyl)-4,5-dihydroisoxazol-3-yl)thiazol-2-yl)piperidin-1-yl)-2-((5-methoxypyrimidin-4-yl)oxy)ethan-1-one]	≥ 70
O=C(COc1cnc(C(F)(F)F)cn1)N1CCC(c2nc(C3=NOC(c4c(Cl)cccc4Cl)C3)cs2)CC1 (stereo not shown) [Compound 88, 1-(4-(4-(5-(2,6-dichlorophenyl)-4,5-dihydroisoxazol-3-yl)thiazol-2-yl)piperidin-1-yl)-2-((5-(trifluoromethyl)pyrazin-2-yl)oxy)ethan-1-one]	≥ 70
O=C(COc1nccc(C(F)(F)F)n1)N1CCC(c2nc(C3=NOC(c4c(O)cccc4Cl)C3)cs2)CC1 (stereo not shown) [Compound 85, 1-(4-(4-(5-(2-chloro-6-hydroxyphenyl)-4,5-dihydroisoxazol-3-yl)thiazol-2-yl)piperidin-1-yl)-2-((4-(trifluoromethyl)pyrimidin-2-yl)oxy)ethan-1-one]	≥ 70
N#Cc1cccc(Cl)c1C1CC(c2csc(C3CCN(C(=O)COc4cncc(C(F)(F)F)n4)CC3)n2)=NO1 (stereo not shown) [Compound 56, 3-chloro-2-(3-(2-(1-(2-((6-(trifluoromethyl)pyrazin-2-yl)oxy)acetyl)piperidin-4-yl)thiazol-4-yl)-4,5-dihydroisoxazol-5-yl)benzonitrile]	≥ 70
O=C(COc1nccc(C(F)(F)F)n1)N1CCC(c2nc(C3=NOC(c4c(F)cccc4Cl)C3)cs2)CC1 (stereo not shown) [Compound 48, 1-(4-(4-(5-(2-chloro-6-fluorophenyl)-4,5-dihydroisoxazol-3-yl)thiazol-2-yl)piperidin-1-yl)-2-((4-(trifluoromethyl)pyrimidin-2-yl)oxy)ethan-1-one]	≥ 70
COc1cncnc1OCC(=O)N1CCC(c2nc(C3=NOC(c4c(Cl)cccc4Cl)C3)cs2)CC1 (stereo not shown) [Compound 73, 1-(4-(4-(5-(2,6-dichlorophenyl)-4,5-dihydroisoxazol-3-yl)thiazol-2-yl)piperidin-1-yl)-2-((5-methoxypyrimidin-4-yl)oxy)ethan-1-one]	≥ 70
O=C(COc1nccc(C(F)(F)F)n1)N1CCC(c2nc(C3=NOC(c4c(Cl)cc(Cl)cc4Cl)C3)cs2)CC1 (stereo not shown) [Compound 49, 1-(4-(4-(5-(2,4,6-trichlorophenyl)-4,5-dihydroisoxazol-3-yl)thiazol-2-yl)piperidin-1-yl)-2-((4-(trifluoromethyl)pyrimidin-2-yl)oxy)ethan-1-one]	≥ 70
COc1cncc(OCC(=O)N2CCC(c3nc(C4=NOC(c5c(F)cccc5F)C4)cs3)CC2)n1 (stereo not shown) [Compound 119, 1-(4-(4-(5-(2,6-difluorophenyl)-4,5-dihydroisoxazol-3-yl)thiazol-2-yl)piperidin-1-yl)-2-((6-methoxypyrazin-2-yl)oxy)ethan-1-one]	≥ 70
CSc1nccnc1OCC(=O)N1CCC(c2nc(C3=NOC(c4c(Cl)cccc4C#N)C3)cs2)CC1 (stereo not shown) [Compound 146, 3-chloro-2-(3-(2-(1-(2-((3-(methylthio)pyrazin-2-yl)oxy)acetyl)piperidin-4-yl)thiazol-4-yl)-4,5-dihydroisoxazol-5-yl)benzonitrile]	≥ 70
N#Cc1cccc(Cl)c1C1CC(c2csc(C3CCN(C(=O)COc4cnc(C(F)(F)F)cn4)CC3)n2)=NO1 (stereo not shown) [Compound 93, 3-chloro-2-(3-(2-(1-(2-((5-(trifluoromethyl)pyrazin-2-yl)oxy)acetyl)piperidin-4-yl)thiazol-4-yl)-4,5-dihydroisoxazol-5-yl)benzonitrile]	≥ 70
CSc1nccnc1OCC(=O)N1CCC(c2nc(C3=NOC(c4c(Cl)cccc4Cl)C3)cs2)CC1 (stereo not shown) [Compound 148, 1-(4-(4-(5-(2,6-dichlorophenyl)-4,5-dihydroisoxazol-3-yl)thiazol-2-yl)piperidin-1-yl)-2-((3-(methylthio)pyrazin-2-yl)oxy)ethan-1-one]	≥ 70
COc1ncc(OCC(=O)N2CCC(c3nc(C4=NOC(c5c(F)cccc5Br)C4)cs3)CC2)cn1 (stereo not shown) [Compound 134, 1-(4-(4-(5-(2-bromo-6-fluorophenyl)-4,5-dihydroisoxazol-3-yl)thiazol-2-yl)piperidin-1-yl)-2-((2-methoxypyrimidin-5-yl)oxy)ethan-1-one]	≥ 70
COc1nc(OC)nc(OCC(=O)N2CCC(c3nc(C4=NOC(c5c(F)cccc5Cl)C4)cs3)CC2)n1 (stereo not shown) [Compound 98, 1-(4-(4-(5-(2-chloro-6-fluorophenyl)-4,5-dihydroisoxazol-3-yl)thiazol-2-yl)piperidin-1-yl)-2-((4,6-dimethoxy-1,3,5-triazin-2-yl)oxy)ethan-1-one]	≥ 70
COc1nc(OC)nc(OCC(=O)N2CCC(c3nc(C4=NOC(c5c(Cl)cccc5Cl)C4)cs3)CC2)n1 (stereo not shown) [Compound 106, 1-(4-(4-(5-(2,6-dichlorophenyl)-4,5-dihydroisoxazol-3-yl)thiazol-2-yl)piperidin-1-yl)-2-((4,6-dimethoxy-1,3,5-triazin-2-yl)oxy)ethan-1-one]	≥ 70
COc1nccnc1OCC(=O)N1CCC(c2nc(C3=NOC(c4c(Cl)cccc4Cl)C3)cs2)CC1 (stereo not shown) [Compound 30, 1-(4-(4-(5-(2,6-dichlorophenyl)-4,5-dihydroisoxazol-3-yl)thiazol-2-yl)piperidin-1-yl)-2-((3-methoxypyrazin-2-yl)oxy)ethan-1-one]	≥ 70
O=C(COc1cncc(C(F)(F)F)n1)N1CCC(c2nc(C3=NOC(c4c(F)cccc4Br)C3)cs2)CC1 (stereo not shown) [Compound 59, 1-(4-(4-(5-(2-bromo-6-fluorophenyl)-4,5-dihydroisoxazol-3-yl)thiazol-2-yl)piperidin-1-yl)-2-((6-(trifluoromethyl)pyrazin-2-yl)oxy)ethan-1-one]	≥ 70
CS(=O)(=O)Oc1ccc(F)c2c1COC(c1csc(C3CCN(C(=O)COc4nccnc4C(F)(F)F)CC3)n1)OC2 (stereo not shown) [Compound 154, 9-fluoro-3-(2-(1-(2-((3-(trifluoromethyl)pyrazin-2-yl)oxy)acetyl)piperidin-4-yl)thiazol-4-yl)-1,5-dihydrobenzo[e][1,3]dioxepin-6-yl methanesulfonate]	≥ 70
O=C(COc1ccnc(C(F)(F)F)n1)N1CCC(c2nc(C3=NOC(c4c(F)cccc4Cl)C3)cs2)CC1 (stereo not shown) [Compound 20, 1-(4-(4-(5-(2-chloro-6-fluorophenyl)-4,5-dihydroisoxazol-3-yl)thiazol-2-yl)piperidin-1-yl)-2-((2-(trifluoromethyl)pyrimidin-4-yl)oxy)ethan-1-one]	≥ 70
N#Cc1ccnc(OCC(=O)N2CCC(c3nc(C4=NOC(c5c(F)cccc5Br)C4)cs3)CC2)n1 (stereo not shown) [Compound 117, 2-(2-(4-(4-(5-(2-bromo-6-fluorophenyl)-4,5-dihydroisoxazol-3-yl)thiazol-2-yl)piperidin-1-yl)-2-oxoethoxy)pyrimidine-4-carbonitrile]	≥ 70
COc1ncc(OCC(=O)N2CCC(c3nc(C4=NOC(c5c(F)cccc5Cl)C4)cs3)CC2)cn1 (stereo not shown) [Compound 132, 1-(4-(4-(5-(2-chloro-6-fluorophenyl)-4,5-dihydroisoxazol-3-yl)thiazol-2-yl)piperidin-1-yl)-2-((2-methoxypyrimidin-5-yl)oxy)ethan-1-one]	≥ 70
COc1cncnc1OCC(=O)N1CCC(c2nc(C3=NOC(c4c(Cl)cccc4OS(C)(=O)=O)C3)cs2)CC1 (stereo not shown) [Compound 72, 3-chloro-2-(3-(2-(1-(2-((5-methoxypyrimidin-4-yl)oxy)acetyl)piperidin-4-yl)thiazol-4-yl)-4,5-dihydroisoxazol-5-yl)phenyl methanesulfonate]	≥ 70
CSc1nccnc1OCC(=O)N1CCC(c2nc(C3=NOC(c4c(F)cccc4Cl)C3)cs2)CC1 (stereo not shown) [Compound 142, 1-(4-(4-(5-(2-chloro-6-fluorophenyl)-4,5-dihydroisoxazol-3-yl)thiazol-2-yl)piperidin-1-yl)-2-((3-(methylthio)pyrazin-2-yl)oxy)ethan-1-one]	≥ 70
CS(=O)(=O)c1nccnc1OCC(=O)N1CCC(c2nc(C3=NOC(c4c(F)cccc4F)C3)cs2)CC1 (stereo not shown) [Compound 157, 1-(4-(4-(5-(2,6-difluorophenyl)-4,5-dihydroisoxazol-3-yl)thiazol-2-yl)piperidin-1-yl)-2-((3-(methylsulfonyl)pyrazin-2-yl)oxy)ethan-1-one]	≥ 70
COc1ncc(OCC(=O)N2CCC(c3nc(C4=NOC(c5cc(Cl)ccc5Cl)C4)cs3)CC2)cn1 (stereo not shown) [Compound 135, 1-(4-(4-(5-(2,5-dichlorophenyl)-4,5-dihydroisoxazol-3-yl)thiazol-2-yl)piperidin-1-yl)-2-((2-methoxypyrimidin-5-yl)oxy)ethan-1-one]	≥ 70
COc1nccnc1OCC(=O)N1CCC(c2nc(C3=NOC(c4c(Cl)cccc4C(F)(F)F)C3)cs2)CC1 (stereo not shown) [Compound 65, 1-(4-(4-(5-(2-chloro-6-(trifluoromethyl)phenyl)-4,5-dihydroisoxazol-3-yl)thiazol-2-yl)piperidin-1-yl)-2-((3-methoxypyrazin-2-yl)oxy)ethan-1-one]	≥ 70

From patent publication US12471596B2 (priority 2019, dated 2025)
